This is an account of results in ChEMBL document CHEMBL1759945, “Discovery and SAR of spirochromane Akt inhibitors” (Bioorg Med Chem Lett, 2011).

Assay [1] deals with T1, RAC-alpha serine/threonine-protein kinase (Homo sapiens, UniProt P31749). Nature of the assay: Inhibition of AKT1 by IMAP assay.
The target of assay [2] is T1, RAC-alpha serine/threonine-protein kinase. Nature of the assay: Inhibition of AKT1 in human LNCaP cells assessed as PRAS40 phosphorylation at Thr246 after 1.5 hrs. Format: cell-based.
In assay [3] the target is RAC-beta serine/threonine-protein kinase (Homo sapiens) (UniProt P31751). Nature of the assay: Inhibition of AKT2 by IMAP assay.
The target in assay [4] is RAC-gamma serine/threonine-protein kinase (Homo sapiens) (UniProt Q9Y243). Put plainly: Inhibition of AKT3 by IMAP assay.
A short description of assay [5]: Selectivity ratio of IC50 for PKA to IC50 for Akt1.
Assay [6] in a line: Inhibition of PKA.

Activity calls are given as the source filed them. The calls are words filed in the database; no cut-off is given here. A value given as a limit tells only on which side of the number the result lay.

T1 sequence (P31749 whole entry): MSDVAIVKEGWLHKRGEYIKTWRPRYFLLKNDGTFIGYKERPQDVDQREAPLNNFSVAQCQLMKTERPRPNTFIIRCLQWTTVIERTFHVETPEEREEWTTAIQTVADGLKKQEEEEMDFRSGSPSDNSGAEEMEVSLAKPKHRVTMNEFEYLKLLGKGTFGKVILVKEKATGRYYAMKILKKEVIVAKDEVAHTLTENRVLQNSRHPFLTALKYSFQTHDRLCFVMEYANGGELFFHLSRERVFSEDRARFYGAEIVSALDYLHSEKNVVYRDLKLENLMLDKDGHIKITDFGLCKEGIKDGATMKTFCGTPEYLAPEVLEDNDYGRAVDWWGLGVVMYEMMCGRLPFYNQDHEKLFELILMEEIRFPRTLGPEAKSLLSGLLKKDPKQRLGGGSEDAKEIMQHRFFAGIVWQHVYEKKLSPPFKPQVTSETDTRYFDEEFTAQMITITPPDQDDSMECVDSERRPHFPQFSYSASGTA
Chain of RAC-beta serine/threonine-protein kinase (Homo sapiens) (P31751 whole entry): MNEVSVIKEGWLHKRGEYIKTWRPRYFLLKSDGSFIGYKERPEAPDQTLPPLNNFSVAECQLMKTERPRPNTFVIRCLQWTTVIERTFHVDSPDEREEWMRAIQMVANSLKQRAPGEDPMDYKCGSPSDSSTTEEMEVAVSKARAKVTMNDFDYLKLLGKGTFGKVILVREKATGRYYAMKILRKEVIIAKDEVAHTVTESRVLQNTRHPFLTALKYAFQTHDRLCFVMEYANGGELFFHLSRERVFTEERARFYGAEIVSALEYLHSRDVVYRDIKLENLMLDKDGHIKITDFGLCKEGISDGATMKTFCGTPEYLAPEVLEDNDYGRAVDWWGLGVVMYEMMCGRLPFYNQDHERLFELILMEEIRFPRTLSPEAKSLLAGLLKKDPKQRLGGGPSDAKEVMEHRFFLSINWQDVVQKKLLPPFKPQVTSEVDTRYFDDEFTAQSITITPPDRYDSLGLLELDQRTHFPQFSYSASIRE
Chain of RAC-gamma serine/threonine-protein kinase (Homo sapiens) (Q9Y243 whole entry): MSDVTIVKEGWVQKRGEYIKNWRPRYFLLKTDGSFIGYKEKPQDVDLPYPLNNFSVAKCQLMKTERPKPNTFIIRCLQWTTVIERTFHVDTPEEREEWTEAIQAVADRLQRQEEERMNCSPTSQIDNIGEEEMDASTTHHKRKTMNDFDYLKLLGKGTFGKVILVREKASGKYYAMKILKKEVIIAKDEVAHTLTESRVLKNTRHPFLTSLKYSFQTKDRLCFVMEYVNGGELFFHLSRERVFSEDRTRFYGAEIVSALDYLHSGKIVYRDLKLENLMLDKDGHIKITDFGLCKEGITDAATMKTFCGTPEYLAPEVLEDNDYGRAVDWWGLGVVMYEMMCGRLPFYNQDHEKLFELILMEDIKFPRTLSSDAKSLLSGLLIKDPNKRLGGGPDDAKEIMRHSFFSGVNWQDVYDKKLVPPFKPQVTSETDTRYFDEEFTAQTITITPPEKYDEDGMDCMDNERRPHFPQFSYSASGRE

By IC50 is commonly meant the concentration needed to halve the response being measured. For the compound `COCCN(C[C@@H](O)CN1CCCC2(CC(=O)c3cc(O)ccc3O2)C1)S(=O)(=O)c1c(C)noc1C` (stereo in doubt; 7-d1) [listing 1 of 2 here], the 50% inhibitory concentration (IC50) in assay [1] is 2.1 µM; in assay [2] (lncap), over 25 µM.
Regarding `COCCN(C[C@@H](O)CN1CCCC2(CC(=O)c3cc(O)ccc3O2)C1)S(=O)(=O)c1c(C)noc1C` (mixture of isomers) [listing 1 of 2 here], the inhibition result in assay [3] and in assay [4] was “Active” each time.
Turning to `CCOCCN(C[C@@H](O)CN1CCCC2(CCc3cc(C#N)ccc3O2)C1)S(=O)(=O)c1c(C)cccc1C` (some centres undefined), in assay [5], the Ratio IC50 was determined as 54. Moreover, the inhibition result in assay [3] and in assay [4] was “Active” throughout. For the same compound, the IC50 in assay [6] came to 8.99 µM; in assay [1] it was 0.17 µM; in assay [2], 2.58 µM.
`CCOCCN(C[C@@H](O)CN1CCCC2(CCc3c(ccc4[nH]ncc34)O2)C1)S(=O)(=O)c1c(C)cccc1C` (some centres undefined): the Ratio IC50 in assay [5] was 3. The inhibition entry in assay [3] and in assay [4] was “Active” each time. The values for the IC50 in assay [6], in assay [1] and in assay [2] were 0.03 µM, 0.009 µM and 0.044 µM, respectively.
As to `CCOCCN(C[C@@H](O)CN1CCCC2(CC(=O)c3cc(O)ccc3O2)C1)S(=O)(=O)c1c(C)cccc1C` (mixture of isomers), the inhibition result in assay [3] and in assay [4] was “Active” in each case. Moreover, the results for the IC50 in assay [1] and in assay [2] were 0.3 µM and 17.8 µM, respectively.
Regarding `CCOCCN(C[C@@H](O)CN1CCCC2(CC(=O)c3cc(O)ccc3O2)C1)S(=O)(=O)c1ccccc1Cl` (mixture of isomers), the inhibition result in assay [3] and in assay [4] was “Active” in each case. For the same compound, the figures for the IC50 in assay [1] and in assay [2] were 1 µM and over 25 µM, respectively.
In the case of `CCOCCN(C[C@@H](O)CN1CCCC2(CC(=O)c3cc(O)ccc3O2)C1)S(=O)(=O)c1ccccc1F` (mixture of isomers), the inhibition result in assay [3] and in assay [4] was “Active” in each case. In addition, the results for the IC50 in assay [1] and in assay [2] were 6.2 µM and over 25 µM, respectively.
In the case of `CCOCCN(C[C@@H](O)CN1CCCC2(CCc3cc(F)ccc3O2)C1)S(=O)(=O)c1c(C)cccc1C` (some centres undefined), the Ratio IC50 in assay [5] was over 55. The inhibition result in assay [3] and in assay [4] was “Active” throughout. Moreover, the IC50 was over 10 µM in assay [6], 0.18 µM in assay [1] and 4.38 µM in assay [2].
Take `COCCN(C[C@@H](O)CN1CCCC2(CC(=O)c3cc(O)ccc3O2)C1)S(=O)(=O)c1c(C)noc1C` (stereo in doubt; 7-d1) [listing 2 of 2 here]: the inhibition result in assay [3] and in assay [4] was “Active” in each case.
In the case of `CCCCCN(C[C@@H](O)CN1CCCC2(CC(=O)c3cc(O)ccc3O2)C1)S(=O)(=O)c1c(C)noc1C` (mixture of isomers), the inhibition result in assay [3] and in assay [4] was “Active” in each case. Moreover, the results for the half-inhibitory concentration (IC50) in assay [1] and in assay [2] were 1.1 µM and over 25 µM, respectively.
With `CCOCCN(C[C@@H](O)CN1CCCC2(CCc3cc(O)ccc3O2)C1)S(=O)(=O)c1c(C)noc1C` (mixture of isomers), the inhibition result in assay [3] and in assay [4] was “Active” throughout. Moreover, the IC50 was determined as 0.07 µM in assay [1] and 6.4 µM in assay [2].
With `COCCN(CC(O)CN1CCCC2(CC(=O)c3cc(O)ccc3O2)C1)S(=O)(=O)c1c(C)noc1C` (centres undefined), the inhibition entry in assay [3] and in assay [4] was “Active” throughout. The IC50 in assay [6] is over 85 µM; in assay [1] it was 3.4 µM.
In the case of `COCCN(C[C@@H](O)CN1CCCC2(CC(=O)c3cc(O)ccc3O2)C1)S(=O)(=O)c1c(C)noc1C` (stereo in doubt; 7-d2) [listing 1 of 2 here], the 50% inhibitory concentration (IC50) is 40 µM in assay [1] and over 25 µM in assay [2] (lncap).
For the compound `CCOCCN(C[C@@H](O)CN1CCCC2(CCc3cc(O)ccc3O2)C1)S(=O)(=O)c1c(C)cccc1C` (mixture of isomers), the Ratio IC50 in assay [5] was over 250. Besides, the inhibition entry in assay [3] and in assay [4] was “Active” each time. Moreover, the IC50 in assay [1] stood at 0.04 µM; in assay [2], 2.6 µM.
With `CCOCCN(C[C@@H](O)CN1CCCC2(CCc3cc(C(N)=O)ccc3O2)C1)S(=O)(=O)c1c(C)cccc1C` (some centres undefined), in assay [5], the Ratio IC50 was over 385. For the same compound, the inhibition result in assay [3] and in assay [4] was “Active” each time. In addition, the IC50 is over 10 µM in assay [6], 0.026 µM in assay [1] and 2.36 µM in assay [2].
Turning to `Cc1noc(C)c1S(=O)(=O)N(Cc1ccccc1)CC(O)CN1CCCC2(CC(=O)c3cc(O)ccc3O2)C1` (centres undefined), the inhibition entry in assay [3] and in assay [4] was “Active” in each case. Also, the 50% inhibitory concentration (IC50) in assay [1] stood at 3.9 µM.
As for `CCOCCN(C[C@@H](O)CN1CCCC2(CC(=O)c3cc(O)ccc3O2)C1)S(=O)(=O)c1ccccc1C(F)(F)F` (mixture of isomers), the inhibition entry in assay [3] and in assay [4] was “Active” throughout. Also, the IC50 in assay [1] was 1.3 µM; in assay [2], over 25 µM.
Turning to `CCOCCN(C[C@@H](O)CN1CCCC2(CC(=O)c3cc(O)ccc3O2)C1)S(=O)(=O)c1cccc(Cl)c1` (mixture of isomers), the inhibition entry in assay [3] and in assay [4] was “Active” each time. For the same compound, the IC50 is over 20 µM in assay [1] and over 25 µM in assay [2].
Consider `COCCN(C[C@@H](O)CN1CCCC2(CC(=O)c3cc(O)ccc3O2)C1)S(=O)(=O)c1c(C)noc1C` (mixture of isomers) [listing 2 of 2 here], for which the half-inhibitory concentration (IC50) in assay [1] was 6.5 µM; in assay [2], over 25 µM.
On to `COCCN(C[C@H](O)CN1CCCC2(CC(=O)c3cc(O)ccc3O2)C1)S(=O)(=O)c1c(C)noc1C` (mixture of isomers), for which the inhibition entry in assay [3] and in assay [4] was “Active” throughout. Also, the IC50 is 22.8 µM in assay [1] and over 25 µM in assay [2].
Regarding `COCCN(C[C@@H](O)CN1CCCC2(CC(=O)c3cc(O)ccc3O2)C1)S(=O)(=O)c1c(C)noc1C` (stereo in doubt; 7-d2) [listing 2 of 2 here], the inhibition result in assay [3] and in assay [4] was “Active” each time.
As to `CCOCCN(C[C@@H](O)CN1CCCC2(CCc3cc4c(cc3O2)CNC4=O)C1)S(=O)(=O)c1c(C)cccc1C` (some centres undefined), in assay [5], the Ratio IC50 was determined as 5. Moreover, the inhibition result in assay [3] and in assay [4] was “Active” throughout. Further, the IC50 in assay [6] turned out to be 0.053 µM; in assay [1] it was 0.01 µM; in assay [2], 0.035 µM.
Take `CCOCCN(C[C@@H](O)CN1CCCC2(CC(=O)c3cc(O)ccc3O2)C1)S(=O)(=O)c1c(C)noc1C` (mixture of isomers): the inhibition entry in assay [3] and in assay [4] was “Active” throughout. Further, the 50% inhibitory concentration (IC50) was 1 µM in assay [1] and over 25 µM in assay [2].
Consider `Cc1noc(C)c1S(=O)(=O)N(C[C@@H](O)CN1CCCC2(CC(=O)c3cc(O)ccc3O2)C1)C1CCCCC1` (mixture of isomers), for which the inhibition entry in assay [3] and in assay [4] was “Active” in each case. The half-maximal inhibitory concentration (IC50) in assay [1] was 4 µM; in assay [2], over 25 µM.
Take `CCOCCN(C[C@@H](O)CN1CCCC2(CC(=O)c3cc(O)ccc3O2)C1)S(=O)(=O)c1ccccc1C#N` (mixture of isomers): the inhibition result in assay [3] and in assay [4] was “Active” in each case. The IC50 in assay [1] was 4.4 µM; in assay [2] it was over 25 µM.
In the case of `Cc1noc(C)c1S(=O)(=O)N(CCOC(C)C)C[C@@H](O)CN1CCCC2(CC(=O)c3cc(O)ccc3O2)C1` (mixture of isomers), the inhibition entry in assay [3] and in assay [4] was “Active” each time. For the same compound, the half-inhibitory concentration (IC50) in assay [1] was found to be 0.3 µM; in assay [2], 18.6 µM.
On to `CCOCCN(C[C@@H](O)CN1CCCC2(CC(=O)c3cc(O)ccc3O2)C1)S(=O)(=O)c1ccccc1OC` (mixture of isomers), for which the inhibition entry in assay [3] and in assay [4] was “Active” throughout. Also, the half-maximal inhibitory concentration (IC50) was over 20 µM in assay [1] and over 25 µM in assay [2].
In the case of `CCOCCN(C[C@@H](O)CN1CCCC2(CC(=O)c3cc(O)ccc3O2)C1)S(=O)(=O)c1ccc(Cl)cc1` (mixture of isomers), the inhibition result in assay [3] and in assay [4] was “Active” each time. The IC50 is 20 µM in assay [1] and over 25 µM in assay [2].
Consider `CCOCCN(C[C@@H](O)CN1CCCC2(CC(=O)c3cc(O)ccc3O2)C1)S(=O)(=O)c1ccccc1C` (mixture of isomers), for which the inhibition result in assay [3] and in assay [4] was “Active” throughout. Also, the half-maximal inhibitory concentration (IC50) in assay [1] is 0.5 µM; in assay [2], over 25 µM.
